Assay: Rabbit immunity suppression: body weight change after administration of the immunosuppressive agent
Assay type: in vivo, Japanese white rabbit
Conditions: 4 mg/kg per dose to femoral muscle once a week; 2 weeks after starting the administration; average of 15 rabbits
Description: 14 week old Japanese white rabbits (Kbl: JW, Kitayama Labes Co., Ltd.) were quarantined and acclimatized for 1 week. After acclimatization, a long-acting methylprednisolone acetate preparation (Depo Melcort, Fuji Pharma Co., Ltd.) was administered as an immunosuppressive agent to femoral muscle a total of three times, with 4 mg/kg as the amount administered in one dose, at intervals of once a week. […] At a point 2 weeks after starting the administration, at which the average of the weights of a total of 15 rabbits had decreased by about 6% from the weight prior to administration, inoculation with a fungal liquid was carried out.

## CC(=O)OCC(=O)[C@@]1(O)CC[C@H]2[C@@H]3C[C@H](C)C4=CC(=O)C=C[C@]4(C)[C@H]3[C@@H](O)C[C@@]21C [methylprednisolone acetate]
  decrease of average weight from the weight prior to administration (indicator of immunocompromise): about 6%
